From US8383581B2, “Short-chain peptides as parathyroid hormone (PTH) receptor agonist” (Cadila Healthcare Limited, priority 2009, dated 2013)
Where a SMILES comes first, the peptide text is derived from it. [ ]: non-standard residue; d: D form. ξ: configuration not given here. αMePhe(2,6-F2) = C[C@](N)(Cc1c(F)cccc1F)C(=O)O; ξαMePhe(2,6-F2) = CC(N)(Cc1c(F)cccc1F)C(=O)O; αMePhe(2-F) = C[C@](N)(Cc1ccccc1F)C(=O)O; ξαMePhe(2-F) = CC(N)(Cc1ccccc1F)C(=O)O; hArg = N=C(N)NCCCC[C@H](N)C(=O)O; ξαMeF = CC(N)(Cc1ccccc1)C(=O)O; Nle = CCCC[C@H](N)C(=O)O; ξαMeP = CC1(C(=O)O)CCCN1; Ac5c = NC1(C(=O)O)CCCC1; Ac3c = NC1(C(=O)O)CC1; Aib = CC(C)(N)C(=O)O

How the values were obtained:
Assay type in all cases: in vitro ADME
[1] = Stability of peptides in human plasma; conditions: human, plasma; for metabolised at 24 h, 2 μM: pH 7.8
Description: (§1) b) Stability of Peptides in Human Plasma, Simulated Gastric Fluid, Intestinal Fluid and Liver Microsomes (Ex-Vivo): Different short-chain peptides (final concentration 2 μM) were incubated with either pooled human plasma (7.5 μL) or simulated gastric fluid (pH 1.5; composition HCl, NaCl and Pepsin) or simulated intestinal fluid (pH 7.5) or human liver microsomes, for 0, 2, 4, 6, 12 and 24 h (37° C.; 50 mM triethanolamine-HCl buffer; pH 7.8). Concentrations of human plasma/simulated gastric fluid/simulated intestinal fluid/human liver microsomes were selected in preliminary experiments to provide degradation of approximately 50% of PTH(1-34) within 1 h, therefore allowing time-dependent degradation to be viewed over 24 h. Reactions were terminated by the addition of TFA/H2O ([…], 10% (v/v)). The reaction products were then applied to a Vydac C18 analytical column (4.6×250-mm) and the major degradation fragment separated from intact short-chain peptides. The column was equilibrated with TFA/H20, at a flow rate of 1 mL/min. Using 0.1% (v/v) TFA in 70% acetonitrile/H2O, the concentration of acetonitrile in the eluting solvent was raised from 0% to 28% over 10 min and from 28% to 42% over 30 min. The absorbance was monitored at 206 nm using UV detector and peaks were collected manually prior to ESI-MS analysis. Area under the curve was measured for test peptides and their metabolites and percentage degradation were calculated at each time point over a period of 24 h. Stability study results of selected peptides, in human plasma, simulated gastric fluid, intestinal fluid and liver microsomes (in vitro) are listed in Table 4.

[2] = Stability of peptides in simulated gastric fluid (pH 1.5; HCl, NaCl and Pepsin); conditions: pH 1.5; for % degradation of peptides in 24 h when incubated with simulated gastric fluid: 2 μM; for half-life (t1/2) in simulated gastric fluid / half-life: simulated gi fluid
Description: as §1

[3] = Stability of peptides in simulated intestinal fluid (pH 7.5); conditions: pH 7.5; for half-life (t1/2) in simulated intestinal fluid / half-life: simulated gi fluid; for % degradation of peptides in 24 h when incubated with simulated intestinal fluid: 2 μM
Description: as §1

[4] = Stability of peptides in human liver microsomes; conditions: human, microsomes; for % degradation of peptides in 24 h when incubated with liver microsomes: 2 μM, pH 7.8
Description: as §1

Compound	half-life [1] [min]	metabolised at 24 h, 2 μM [1] [%]	% degradation of peptides in 24 h when incubated with simulated gastric fluid [2] [%]	half-life (t1/2) in simulated gastric fluid [2]	half-life (t1/2) in simulated intestinal fluid [3]	% degradation of peptides in 24 h when incubated with simulated intestinal fluid [3] [%]	half-life [4] [min]	% degradation of peptides in 24 h when incubated with liver microsomes [4] [%]	half-life [2] [min]	half-life [3] [min]	half-life (t1/2) in liver microsomes [4]	half-life (t1/2) in human plasma [1]
CCCC[C@H](NC(=O)C(C)(Cc1ccccc1F)NC(=O)[C@H](CCC(N)=O)NC(=O)[C@@H](NC(=O)[C@H](CCC(=O)O)NC(=O)C(C)(C)NC(=O)[C@@H](NC(=O)C(C)(C)N)C(C)C)[C@@H](C)CC)C(=O)N[C@@H](Cc1c[nH]cn1)C(=O)N[C@@H](CCC(N)=O)C(=O)N[C@@H](CCCCNC(=N)N)C(=O)N1CCCC1(C)C(=O)N[C@@H](CCCCN)C(=O)NC(C)(Cc1ccccc1)C(N)=O (some centres unmarked) [Seq. ID. 25] (H-[Aib]V[Aib]EIQ[ξαMePhe(2-F)][Nle]HQ[hArg][ξαMeP]K[ξαMeF]-NH2)	480	75	12	(8) h	(6) h	46	60	83	–	–	–	–
CCCC[C@H](NC(=O)C(C)(Cc1ccccc1F)NC(=O)[C@H](CCC(N)=O)NC(=O)[C@@H](NC(=O)[C@H](CCC(=O)O)NC(=O)C1(NC(=O)[C@@H](NC(=O)C2(N)CCCC2)C(C)C)CCCC1)[C@@H](C)CC)C(=O)N[C@@H](Cc1c[nH]cn1)C(=O)N[C@@H](CCC(N)=O)C(=O)N[C@@H](CCCCNC(=N)N)C(=O)N1CCCC1(C)C(=O)N[C@@H](CCCCN)C(=O)NC(C)(Cc1ccccc1)C(N)=O (some centres unmarked) [Seq. ID. 34] (H-[Ac5c]V[Ac5c]EIQ[ξαMePhe(2-F)][Nle]HQ[hArg][ξαMeP]K[ξαMeF]-NH2)	480	70	15	(8) h	(6) h	41	60	77	–	–	–	–
CCCC[C@H](NC(=O)C(C)(Cc1c(F)cccc1F)NC(=O)[C@H](CCC(N)=O)NC(=O)[C@@H](NC(=O)[C@H](CCC(=O)O)NC(=O)C1(NC(=O)[C@@H](NC(=O)C2(N)CCCC2)C(C)C)CCCC1)[C@@H](C)CC)C(=O)N[C@@H](Cc1c[nH]cn1)C(=O)N[C@@H](CCC(N)=O)C(=O)N[C@@H](CCCCNC(=N)N)C(=O)N1CCCC1(C)C(=O)N[C@@H](CCCCN)C(=O)NC(C)(Cc1ccccc1)C(N)=O (some centres unmarked) [Seq. ID. 46] (H-[Ac5c]V[Ac5c]EIQ[ξαMePhe(2,6-F2)][Nle]HQ[hArg][ξαMeP]K[ξαMeF]-NH2)	> 1440	0	00	–	–	00	–	31	> 1440	> 1440	(5) h	–
CCCC[C@H](NC(=O)C(C)(Cc1ccccc1F)NC(=O)[C@H](CCC(N)=O)NC(=O)[C@@H](NC(=O)[C@H](CCC(=O)O)NC(=O)C(C)(C)NC(=O)[C@@H](NC(=O)C(C)(C)N)C(C)C)[C@@H](C)CC)C(=O)N[C@@H](Cc1c[nH]cn1)C(=O)N[C@@H](CCC(N)=O)C(=O)N[C@@H](CCCCNC(=N)N)C(=O)N1CCCC1(C)C(=O)N[C@@H](CCCCN)C(=O)NC(C)(Cc1ccccc1F)C(N)=O (some centres unmarked) [Seq. ID. 56] (H-[Aib]V[Aib]EIQ[ξαMePhe(2-F)][Nle]HQ[hArg][ξαMeP]K[ξαMePhe(2-F)]-NH2)	> 1440	0	00	–	–	00	–	32	> 1440	> 1440	(5) h	–
CCCC[C@H](NC(=O)C(C)(Cc1ccccc1F)NC(=O)[C@H](CCC(N)=O)NC(=O)[C@@H](NC(=O)[C@H](CCC(=O)O)NC(=O)C1(NC(=O)[C@@H](NC(=O)C(C)(C)N)C(C)C)CCCC1)[C@@H](C)CC)C(=O)N[C@@H](Cc1c[nH]cn1)C(=O)N[C@@H](CCC(N)=O)C(=O)N[C@@H](CCCCNC(=N)N)C(=O)N1CCCC1(C)C(=O)N[C@@H](CCCCN)C(=O)NC(C)(Cc1ccccc1F)C(N)=O (some centres unmarked) [Seq. ID. 62] (H-[Aib]V[Ac5c]EIQ[ξαMePhe(2-F)][Nle]HQ[hArg][ξαMeP]K[ξαMePhe(2-F)]-NH2)	> 1440	0	00	–	–	00	–	33	> 1440	> 1440	(5) h	–
CCCC[C@H](NC(=O)C(C)(Cc1c(F)cccc1F)NC(=O)[C@H](CCC(N)=O)NC(=O)[C@@H](NC(=O)[C@H](CCC(=O)O)NC(=O)C(C)(C)NC(=O)[C@@H](NC(=O)C1(N)CC1)C(C)C)[C@@H](C)CC)C(=O)N[C@@H](Cc1c[nH]cn1)C(=O)N[C@@H](CCC(N)=O)C(=O)N[C@@H](CCCCNC(=N)N)C(=O)N1CCCC1(C)C(=O)N[C@@H](CCCCN)C(=O)NC(C)(Cc1ccccc1F)C(N)=O (some centres unmarked) [Seq. ID. 75] (H-[Ac3c]V[Aib]EIQ[ξαMePhe(2,6-F2)][Nle]HQ[hArg][ξαMeP]K[ξαMePhe(2-F)]-NH2)	–	78	100	–	–	100	30	100	30	30	–	(9) h
CCCC[C@H](NC(=O)[C@](C)(Cc1c(F)cccc1F)NC(=O)[C@H](CCC(N)=O)NC(=O)[C@@H](NC(=O)[C@H](CCC(=O)O)NC(=O)C(C)(C)NC(=O)[C@@H](NC(=O)C1(N)CCCC1)C(C)C)[C@@H](C)CC)C(=O)N[C@@H](Cc1c[nH]cn1)C(=O)N[C@@H](CCC(N)=O)C(=O)N[C@@H](CCCCNC(=N)N)C(=O)NC(C)(C)C(=O)N[C@@H](CCCCN)C(=O)N[C@@](C)(Cc1ccccc1F)C(N)=O [Seq. ID. 85] (H-[Ac5c]V[Aib]EIQ[αMePhe(2,6-F2)][Nle]HQ[hArg][Aib]K[αMePhe(2-F)]-NH2)	–	77	100	–	–	100	30	100	30	30	–	(9) h
CCCC[C@H](NC(=O)C(C)(Cc1ccccc1F)NC(=O)[C@H](CCC(N)=O)NC(=O)[C@@H](NC(=O)[C@H](CCC(=O)O)NC(=O)C(C)(C)NC(=O)[C@@H](NC(=O)C1(N)CC1)C(C)C)[C@@H](C)CC)C(=O)N[C@@H](Cc1c[nH]cn1)C(=O)N[C@@H](CCC(N)=O)C(=O)N[C@@H](CCCCNC(=N)N)C(=O)NC(C)(C)C(=O)N[C@@H](CCCCN)C(=O)NC(C)(Cc1c(F)cccc1F)C(N)=O (some centres unmarked) [Seq. ID. 95] (H-[Ac3c]V[Aib]EIQ[ξαMePhe(2-F)][Nle]HQ[hArg][Aib]K[ξαMePhe(2,6-F2)]-NH2)	–	80	100	–	–	100	30	100	30	30	–	(9) h
CCCC[C@H](NC(=O)C(C)(Cc1ccccc1F)NC(=O)[C@H](CCC(N)=O)NC(=O)[C@@H](NC(=O)[C@H](CCC(=O)O)NC(=O)C1(NC(=O)[C@@H](NC(=O)C2(N)CCCC2)C(C)C)CCCC1)[C@@H](C)CC)C(=O)N[C@@H](Cc1c[nH]cn1)C(=O)N[C@@H](CCC(N)=O)C(=O)N[C@@H](CCCCNC(=N)N)C(=O)N1CCCC1(C)C(=O)N[C@@H](CCCCN)C(=O)NC(C)(Cc1c(F)cccc1F)C(N)=O (some centres unmarked) [Seq. ID. 100] (H-[Ac5c]V[Ac5c]EIQ[ξαMePhe(2-F)][Nle]HQ[hArg][ξαMeP]K[ξαMePhe(2,6-F2)]-NH2)	> 1440	0	49	–	–	00	120	82	240	> 1440	–	–
CCCC[C@H](NC(=O)C(C)(Cc1c(F)cccc1F)NC(=O)[C@H](CCC(N)=O)NC(=O)[C@@H](NC(=O)[C@H](CCC(=O)O)NC(=O)C1(NC(=O)[C@@H](NC(=O)C2(N)CCCC2)C(C)C)CCCC1)[C@@H](C)CC)C(=O)N[C@@H](Cc1c[nH]cn1)C(=O)N[C@@H](CCC(N)=O)C(=O)N[C@@H](CCCCNC(=N)N)C(=O)N[C@@H](C)C(=O)N[C@@H](CCCCN)C(=O)NC(C)(Cc1c(F)cccc1F)C(N)=O (some centres unmarked) [Seq. ID. 115] (H-[Ac5c]V[Ac5c]EIQ[ξαMePhe(2,6-F2)][Nle]HQ[hArg]AK[ξαMePhe(2,6-F2)]-NH2)	480	78	12	(8) h	(6) h	55	60	79	–	–	–	–
